pKi: −log10 of the molar value.
Assays:
Histone deacetylase 1 = Histone deacetylase 1 (Homo sapiens, UniProt Q13547)
Histone deacetylase 2 = Histone deacetylase 2 (Homo sapiens, UniProt Q92769)
Histone deacetylase 3 = Histone deacetylase 3 (Homo sapiens, UniProt O15379)
Histone deacetylase 4 = Histone deacetylase 4 (Homo sapiens, UniProt P56524)
Histone deacetylase 5 = Histone deacetylase 5 (Homo sapiens, UniProt Q9UQL6)
[1] = target: T1, Protein deacetylase HDAC6 (Homo sapiens, UniProt Q9UBN7)
T1 sequence (Q9UBN7 whole entry): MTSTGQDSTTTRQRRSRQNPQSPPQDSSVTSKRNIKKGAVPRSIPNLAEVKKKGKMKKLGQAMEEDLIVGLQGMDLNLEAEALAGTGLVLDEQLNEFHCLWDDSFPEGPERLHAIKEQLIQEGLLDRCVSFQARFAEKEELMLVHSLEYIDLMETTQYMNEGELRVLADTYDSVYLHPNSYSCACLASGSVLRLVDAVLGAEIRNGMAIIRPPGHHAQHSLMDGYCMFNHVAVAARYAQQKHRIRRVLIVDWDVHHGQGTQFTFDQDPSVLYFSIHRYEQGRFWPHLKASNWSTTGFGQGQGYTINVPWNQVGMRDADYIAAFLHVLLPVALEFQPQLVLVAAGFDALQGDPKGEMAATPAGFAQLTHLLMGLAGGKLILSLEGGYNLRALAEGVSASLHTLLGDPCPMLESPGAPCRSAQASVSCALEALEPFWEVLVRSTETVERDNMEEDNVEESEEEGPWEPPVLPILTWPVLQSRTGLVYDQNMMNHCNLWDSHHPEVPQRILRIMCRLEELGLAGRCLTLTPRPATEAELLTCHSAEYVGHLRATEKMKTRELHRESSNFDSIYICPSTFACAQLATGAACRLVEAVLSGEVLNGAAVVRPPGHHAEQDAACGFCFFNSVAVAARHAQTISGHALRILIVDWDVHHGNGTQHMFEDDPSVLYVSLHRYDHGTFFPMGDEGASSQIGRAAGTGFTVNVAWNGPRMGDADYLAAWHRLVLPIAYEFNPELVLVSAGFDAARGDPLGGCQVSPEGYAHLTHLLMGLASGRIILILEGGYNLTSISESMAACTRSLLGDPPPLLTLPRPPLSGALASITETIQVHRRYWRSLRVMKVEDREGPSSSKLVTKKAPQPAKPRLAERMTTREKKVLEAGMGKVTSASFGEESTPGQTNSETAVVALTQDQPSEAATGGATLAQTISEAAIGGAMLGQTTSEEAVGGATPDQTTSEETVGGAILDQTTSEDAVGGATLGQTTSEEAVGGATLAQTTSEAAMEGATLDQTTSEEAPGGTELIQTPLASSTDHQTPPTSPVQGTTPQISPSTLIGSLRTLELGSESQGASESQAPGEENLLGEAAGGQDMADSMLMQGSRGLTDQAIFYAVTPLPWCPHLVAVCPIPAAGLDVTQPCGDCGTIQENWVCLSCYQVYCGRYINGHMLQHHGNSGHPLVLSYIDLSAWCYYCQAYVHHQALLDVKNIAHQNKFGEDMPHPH

Histone deacetylase 7 = target: T2, Histone deacetylase 7 (Homo sapiens, UniProt Q8WUI4)
T2 sequence (Q8WUI4 whole entry): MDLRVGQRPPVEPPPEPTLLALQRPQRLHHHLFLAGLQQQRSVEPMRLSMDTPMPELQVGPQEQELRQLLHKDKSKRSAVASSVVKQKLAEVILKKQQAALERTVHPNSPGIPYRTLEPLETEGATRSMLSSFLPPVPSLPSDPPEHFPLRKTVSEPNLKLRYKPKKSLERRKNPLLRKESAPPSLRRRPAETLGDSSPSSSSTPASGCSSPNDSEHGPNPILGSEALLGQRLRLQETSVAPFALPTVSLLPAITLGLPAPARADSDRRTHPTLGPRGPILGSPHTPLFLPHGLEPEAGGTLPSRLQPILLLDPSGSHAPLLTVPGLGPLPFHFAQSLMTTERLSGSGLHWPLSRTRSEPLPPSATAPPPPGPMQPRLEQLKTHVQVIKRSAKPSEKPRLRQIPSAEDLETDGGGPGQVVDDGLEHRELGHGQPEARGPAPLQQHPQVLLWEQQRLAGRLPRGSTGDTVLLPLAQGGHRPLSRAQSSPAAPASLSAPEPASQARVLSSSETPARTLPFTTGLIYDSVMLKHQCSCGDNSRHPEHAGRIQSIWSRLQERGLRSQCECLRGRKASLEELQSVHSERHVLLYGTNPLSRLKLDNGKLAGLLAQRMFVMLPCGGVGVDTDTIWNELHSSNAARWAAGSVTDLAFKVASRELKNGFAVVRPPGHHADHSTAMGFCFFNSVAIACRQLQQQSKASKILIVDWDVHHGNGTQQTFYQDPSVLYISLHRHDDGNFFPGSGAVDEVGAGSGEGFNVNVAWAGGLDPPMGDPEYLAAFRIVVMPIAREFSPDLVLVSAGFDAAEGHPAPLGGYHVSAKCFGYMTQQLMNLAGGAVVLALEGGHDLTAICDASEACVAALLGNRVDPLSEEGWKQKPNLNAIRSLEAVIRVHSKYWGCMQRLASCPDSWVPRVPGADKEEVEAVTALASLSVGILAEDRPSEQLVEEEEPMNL

Histone deacetylase 8 = target: T3, Histone deacetylase 8 (Homo sapiens, UniProt Q9BY41)
T3 sequence (Q9BY41 whole entry): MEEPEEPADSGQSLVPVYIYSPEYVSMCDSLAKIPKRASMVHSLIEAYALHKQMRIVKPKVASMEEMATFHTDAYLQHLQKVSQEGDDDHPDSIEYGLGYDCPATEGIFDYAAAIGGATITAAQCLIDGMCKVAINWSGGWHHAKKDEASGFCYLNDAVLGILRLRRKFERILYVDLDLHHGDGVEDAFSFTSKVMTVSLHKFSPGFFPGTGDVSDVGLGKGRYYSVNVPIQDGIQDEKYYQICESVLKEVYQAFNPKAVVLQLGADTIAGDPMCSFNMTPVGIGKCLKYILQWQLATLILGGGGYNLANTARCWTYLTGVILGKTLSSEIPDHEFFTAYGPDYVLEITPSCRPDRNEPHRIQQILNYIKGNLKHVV

Histone deacetylase 9 = Histone deacetylase 9 (Homo sapiens, UniProt Q9UKV0)
Histone deacetylase 9, sequence (Q9UKV0 whole entry): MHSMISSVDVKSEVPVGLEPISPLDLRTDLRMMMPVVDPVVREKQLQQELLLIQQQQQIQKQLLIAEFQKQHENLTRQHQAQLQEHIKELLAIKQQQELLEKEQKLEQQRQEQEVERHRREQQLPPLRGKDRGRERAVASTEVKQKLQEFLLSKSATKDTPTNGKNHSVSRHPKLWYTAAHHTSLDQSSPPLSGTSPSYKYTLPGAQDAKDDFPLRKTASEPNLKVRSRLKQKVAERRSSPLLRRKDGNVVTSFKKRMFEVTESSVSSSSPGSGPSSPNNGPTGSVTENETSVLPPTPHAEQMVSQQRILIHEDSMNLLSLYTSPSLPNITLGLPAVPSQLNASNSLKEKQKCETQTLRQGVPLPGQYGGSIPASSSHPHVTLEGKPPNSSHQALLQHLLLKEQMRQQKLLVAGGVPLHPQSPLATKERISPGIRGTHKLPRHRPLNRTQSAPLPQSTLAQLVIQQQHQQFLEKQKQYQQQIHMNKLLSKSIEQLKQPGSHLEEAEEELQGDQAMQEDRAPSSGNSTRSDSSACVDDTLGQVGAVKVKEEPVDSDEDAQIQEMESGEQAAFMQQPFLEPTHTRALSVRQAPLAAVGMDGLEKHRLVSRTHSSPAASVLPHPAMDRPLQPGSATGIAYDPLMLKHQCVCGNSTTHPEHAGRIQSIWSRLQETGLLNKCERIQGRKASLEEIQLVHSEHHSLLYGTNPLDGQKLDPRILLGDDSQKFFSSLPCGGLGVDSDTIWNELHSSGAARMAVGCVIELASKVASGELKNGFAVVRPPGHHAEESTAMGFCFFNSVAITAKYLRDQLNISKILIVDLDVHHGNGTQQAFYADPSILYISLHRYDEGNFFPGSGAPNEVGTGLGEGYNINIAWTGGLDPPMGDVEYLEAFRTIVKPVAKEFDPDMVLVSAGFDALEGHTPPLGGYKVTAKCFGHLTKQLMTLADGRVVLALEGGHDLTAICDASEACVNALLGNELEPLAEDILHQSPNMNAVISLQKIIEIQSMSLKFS

Histone deacetylase 3, sequence (O15379 whole entry): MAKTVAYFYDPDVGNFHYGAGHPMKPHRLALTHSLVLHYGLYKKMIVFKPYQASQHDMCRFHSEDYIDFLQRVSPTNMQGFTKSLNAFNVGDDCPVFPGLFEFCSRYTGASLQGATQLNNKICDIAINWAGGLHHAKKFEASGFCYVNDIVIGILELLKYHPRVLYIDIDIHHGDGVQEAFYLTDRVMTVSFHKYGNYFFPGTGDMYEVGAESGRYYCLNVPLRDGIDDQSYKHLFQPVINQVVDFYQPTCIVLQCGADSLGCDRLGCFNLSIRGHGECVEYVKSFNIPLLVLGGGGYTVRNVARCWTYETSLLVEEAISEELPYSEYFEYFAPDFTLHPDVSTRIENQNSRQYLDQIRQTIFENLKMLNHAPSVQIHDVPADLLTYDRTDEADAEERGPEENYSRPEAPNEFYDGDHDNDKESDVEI
Histone deacetylase 1, sequence (Q13547 whole entry): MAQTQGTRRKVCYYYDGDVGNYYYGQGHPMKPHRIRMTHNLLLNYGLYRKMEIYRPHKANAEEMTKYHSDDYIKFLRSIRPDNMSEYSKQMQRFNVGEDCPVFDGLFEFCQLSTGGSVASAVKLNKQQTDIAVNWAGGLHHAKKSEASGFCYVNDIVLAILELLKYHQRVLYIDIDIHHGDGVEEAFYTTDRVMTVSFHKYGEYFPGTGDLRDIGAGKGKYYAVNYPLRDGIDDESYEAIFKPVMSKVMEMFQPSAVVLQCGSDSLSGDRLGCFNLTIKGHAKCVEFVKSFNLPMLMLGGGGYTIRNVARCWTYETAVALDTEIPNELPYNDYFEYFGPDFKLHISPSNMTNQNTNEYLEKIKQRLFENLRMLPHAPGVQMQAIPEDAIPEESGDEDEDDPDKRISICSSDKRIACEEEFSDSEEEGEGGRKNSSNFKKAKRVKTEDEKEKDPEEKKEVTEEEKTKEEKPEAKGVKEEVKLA
Histone deacetylase 5, sequence (Q9UQL6 whole entry): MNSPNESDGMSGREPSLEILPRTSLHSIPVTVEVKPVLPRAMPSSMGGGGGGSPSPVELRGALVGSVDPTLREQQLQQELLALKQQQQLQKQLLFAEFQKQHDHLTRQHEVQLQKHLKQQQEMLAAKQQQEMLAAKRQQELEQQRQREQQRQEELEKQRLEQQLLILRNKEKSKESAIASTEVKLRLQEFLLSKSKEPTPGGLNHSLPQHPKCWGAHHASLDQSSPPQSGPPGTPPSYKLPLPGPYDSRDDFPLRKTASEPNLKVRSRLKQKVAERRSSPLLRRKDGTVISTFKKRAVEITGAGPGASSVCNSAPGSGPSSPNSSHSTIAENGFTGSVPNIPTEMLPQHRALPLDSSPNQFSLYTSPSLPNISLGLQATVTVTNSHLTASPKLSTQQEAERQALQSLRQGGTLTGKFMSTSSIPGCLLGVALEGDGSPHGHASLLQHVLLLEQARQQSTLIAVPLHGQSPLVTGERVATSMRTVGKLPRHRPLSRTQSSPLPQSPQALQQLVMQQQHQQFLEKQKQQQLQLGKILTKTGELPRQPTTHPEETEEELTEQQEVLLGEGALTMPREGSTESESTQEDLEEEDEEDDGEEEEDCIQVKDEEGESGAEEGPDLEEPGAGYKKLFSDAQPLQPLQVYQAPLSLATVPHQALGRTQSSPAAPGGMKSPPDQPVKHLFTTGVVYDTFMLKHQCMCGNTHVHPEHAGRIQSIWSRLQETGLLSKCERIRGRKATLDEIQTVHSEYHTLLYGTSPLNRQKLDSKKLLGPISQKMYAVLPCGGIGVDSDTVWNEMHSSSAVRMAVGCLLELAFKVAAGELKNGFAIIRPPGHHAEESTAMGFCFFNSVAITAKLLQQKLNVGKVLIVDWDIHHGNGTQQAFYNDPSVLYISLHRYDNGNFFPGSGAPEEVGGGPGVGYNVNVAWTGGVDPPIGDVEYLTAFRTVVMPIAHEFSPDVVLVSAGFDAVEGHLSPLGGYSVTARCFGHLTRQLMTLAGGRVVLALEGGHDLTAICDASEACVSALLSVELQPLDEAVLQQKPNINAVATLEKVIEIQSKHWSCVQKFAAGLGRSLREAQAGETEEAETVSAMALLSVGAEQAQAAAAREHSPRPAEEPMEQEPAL
Histone deacetylase 4, sequence (P56524 whole entry): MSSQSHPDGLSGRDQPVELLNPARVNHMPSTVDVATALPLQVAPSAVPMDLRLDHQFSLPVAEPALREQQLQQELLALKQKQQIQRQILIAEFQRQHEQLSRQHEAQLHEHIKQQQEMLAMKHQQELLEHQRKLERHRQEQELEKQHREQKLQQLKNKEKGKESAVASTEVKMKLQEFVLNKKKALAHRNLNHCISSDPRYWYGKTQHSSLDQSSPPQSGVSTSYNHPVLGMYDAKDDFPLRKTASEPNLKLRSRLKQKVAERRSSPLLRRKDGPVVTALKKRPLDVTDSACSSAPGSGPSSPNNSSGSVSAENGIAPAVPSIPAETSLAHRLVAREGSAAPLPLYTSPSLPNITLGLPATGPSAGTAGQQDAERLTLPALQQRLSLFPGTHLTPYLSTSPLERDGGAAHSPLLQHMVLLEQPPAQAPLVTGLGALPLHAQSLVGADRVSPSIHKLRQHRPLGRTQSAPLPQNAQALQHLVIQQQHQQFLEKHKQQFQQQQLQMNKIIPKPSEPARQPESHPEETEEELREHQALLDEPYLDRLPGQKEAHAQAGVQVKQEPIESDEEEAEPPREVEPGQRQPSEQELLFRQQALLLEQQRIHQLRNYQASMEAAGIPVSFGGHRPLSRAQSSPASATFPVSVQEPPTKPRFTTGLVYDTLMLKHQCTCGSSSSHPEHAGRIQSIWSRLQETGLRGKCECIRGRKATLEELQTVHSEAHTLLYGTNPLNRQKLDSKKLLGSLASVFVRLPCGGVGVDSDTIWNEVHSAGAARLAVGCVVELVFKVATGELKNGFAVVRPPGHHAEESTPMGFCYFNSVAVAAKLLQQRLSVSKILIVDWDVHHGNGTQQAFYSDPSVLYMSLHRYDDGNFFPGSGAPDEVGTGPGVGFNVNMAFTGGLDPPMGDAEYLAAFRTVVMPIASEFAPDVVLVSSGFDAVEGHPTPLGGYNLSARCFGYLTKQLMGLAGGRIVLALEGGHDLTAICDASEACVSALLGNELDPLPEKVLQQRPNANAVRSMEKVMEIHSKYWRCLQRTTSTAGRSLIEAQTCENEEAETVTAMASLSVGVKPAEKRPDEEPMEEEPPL
Histone deacetylase 2, sequence (Q92769 whole entry): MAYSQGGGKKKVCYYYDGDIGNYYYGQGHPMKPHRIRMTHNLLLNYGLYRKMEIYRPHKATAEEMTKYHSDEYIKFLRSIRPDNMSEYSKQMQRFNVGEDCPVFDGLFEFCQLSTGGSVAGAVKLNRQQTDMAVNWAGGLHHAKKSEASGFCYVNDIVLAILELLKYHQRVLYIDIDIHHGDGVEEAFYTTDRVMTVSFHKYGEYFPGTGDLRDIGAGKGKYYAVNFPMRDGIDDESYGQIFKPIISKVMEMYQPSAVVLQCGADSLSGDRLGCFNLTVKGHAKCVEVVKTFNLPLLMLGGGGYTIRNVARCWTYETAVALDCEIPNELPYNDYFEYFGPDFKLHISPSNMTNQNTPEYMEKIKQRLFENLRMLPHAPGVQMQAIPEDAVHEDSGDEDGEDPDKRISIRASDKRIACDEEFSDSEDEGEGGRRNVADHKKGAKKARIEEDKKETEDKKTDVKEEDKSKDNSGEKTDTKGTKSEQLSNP

Compound	pKi (Histone deacetylase 1)	pKi (Histone deacetylase 2)	pKi (Histone deacetylase 3)	pKi (Histone deacetylase 4)	pKi (Histone deacetylase 5)	pKi [1]	pKi (Histone deacetylase 7)	pKi (Histone deacetylase 8)	pKi (Histone deacetylase 9)
O=C(/C=C/c1ccc(C(=O)N/N=C/c2ccc(O)c(O)c2O)cc1)NO	6.92	7.15	6.92	6.02	6.74	7.49	5.96	7.30	5.85
Cn1c(/C=C/C(=O)NO)ccc1C(=O)Cc1ccccc1	7.26	6.90	6.60	4.76	4.94	7.52	5.15	6.22	5.00
O=C(/C=C/c1cccc(S(=O)(=O)Nc2ccccc2)c1)NO [BELINOSTAT]				6.42		8.80			
C=C[C@@H](O)[C@@H]1O[C@H]1/C=C/[C@@H]1O[C@H]1[C@@H](C)O [DEPUDECIN]	5.26	4.90	4.84						
CCN(CC)Cc1ccc2cc(COC(=O)Nc3ccc(C(=O)NO)cc3)ccc2c1 [GIVINOSTAT]				5.98	6.22				6.41
O=C(O)CCCCCCC(=O)Nc1ccc([C@H]2O[C@@H](CSc3nc(-c4ccccc4)c(-c4ccccc4)o3)C[C@@H](c3ccc(CO)cc3)O2)cc1 [NILTUBACIN]						5.66		6.12	
O=C(CCCc1ccccc1)NO [PHENYLBUTYRYLHYDROXAMIC ACID]		6.37			4.80	6.82		5.73	
O=C(CCCCCCC(=O)Nc1cccnc1)NO [PYROXAMIDE]		4.44	8.10		5.32	8.32		6.00	
C/C=C1\NC(=O)[C@H]2CSSCC/C=C/[C@H](CC(=O)N[C@H](C(C)C)C(=O)N2)OC(=O)[C@H](C(C)C)NC1=O [ROMIDEPSIN]	11.82								
O=C(CCCCCCC(=O)NO)NO [SUBEROHYDROXAMIC ACID]			6.90		5.02	7.84			

Reference: ChEMBL document CHEMBL1212811, “Chemical phylogenetics of histone deacetylases” (Nat Chem Biol, 2010)
